Results published in ChEMBL document CHEMBL1201862, “PubChem BioAssay data set” (2004).
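Five concentrations, 48 hours, 96-well plates. Abbreviation: GI50, concentration required for 50% inhibition of growth.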 Activity calls are given as the source filed them. Rule as the data show it: active = GI50 up to about 1.1 µM and inactive = higher.

Experiments:
Assay in all cases: growth of human tumour cells (NCI), 48 h
HOP-18 = tested on: HOP-18
MOLT-4 = tested on: MOLT-4
HCC 2998 = tested on: HCC 2998
TK-10 = tested on: TK-10
OVCAR-8 = tested on: OVCAR-8
HCT-15 = tested on: HCT-15
RPMI-8226 = tested on: RPMI-8226
M19-MEL = tested on: M19-MEL
SK-MEL-5 = tested on: SK-MEL-5
LXFL 529 = tested on: LXFL 529
HT-29 = tested on: HT-29
SF-295 = tested on: SF-295
COLO 205 = tested on: COLO 205
M14 = tested on: M14
OVCAR-5 = tested on: OVCAR-5
DMS-114 = tested on: DMS-114
Malme-3M = tested on: Malme-3M
CAKI-1 = tested on: CAKI-1
NCI-H522 = tested on: NCI-H522
K562 = tested on: K562
HOP-62 = tested on: HOP-62
XF498 = tested on: XF498
786-0 = tested on: 786-0
SW-620 = tested on: SW-620
CCRF-CEM = tested on: CCRF-CEM
RXF 631 = tested on: RXF 631
EKVX = tested on: EKVX
HCT-116 = tested on: HCT-116
ACHN = tested on: ACHN
SK-OV-3 = tested on: SK-OV-3
A549 = tested on: A549
UACC-62 = tested on: UACC-62
HL-60 = tested on: HL-60
IGROV-1 = tested on: IGROV-1
NCI-H23 = tested on: NCI-H23
DMS-273 = tested on: DMS-273
SNB-78 = tested on: SNB-78
OVCAR-3 = tested on: OVCAR-3
HOP-92 = tested on: HOP-92
SK-MEL-2 = tested on: SK-MEL-2
NCI-H226 = tested on: NCI-H226
UO-31 = tested on: UO-31
KM12 = tested on: KM12
SNB-75 = tested on: SNB-75
SN12C = tested on: SN12C
SF-268 = tested on: SF-268
U-251 = tested on: U-251
DLD-1 = tested on: DLD-1
SF-539 = tested on: SF-539
SR = tested on: SR
SK-MEL-28 = tested on: SK-MEL-28
UACC-257 = tested on: UACC-257
LOX IMVI = tested on: LOX IMVI
NCI-H460 = tested on: NCI-H460
RXF 393 = tested on: RXF 393
KM-20L2 = tested on: KM-20L2
SNB-19 = tested on: SNB-19
OVCAR-4 = tested on: OVCAR-4
A498 = tested on: A498

Measured: GI50

CCOC(=O)/C(Br)=C1/OC(=O)c2ccccc2-c2ccccc21.CCOC(=O)/C(Br)=C1\OC(=O)c2ccccc2-c2ccccc21
19.6 µM: HCT-15
inactive: HOP-18 22 µM | MOLT-4 14.7 µM | HCC 2998 21 µM | TK-10 21.6 µM | OVCAR-8 23.1 µM | RPMI-8226 8.97 µM | M19-MEL 15.8 µM | SK-MEL-5 17.5 µM | LXFL 529 13.6 µM | HT-29 11.3 µM | SF-295 21.9 µM | COLO 205 15.2 µM | M14 17 µM | OVCAR-5 20 µM | DMS-114 15.4 µM | Malme-3M 17.7 µM | CAKI-1 16.4 µM | NCI-H522 15.8 µM | K562 4.3 µM | HOP-62 18.5 µM | XF498 18.5 µM | 786-0 17.1 µM | SW-620 16.1 µM | CCRF-CEM 10.9 µM | RXF 631 21.9 µM | EKVX 31.7 µM | HCT-116 17.7 µM | ACHN 15.7 µM | SK-OV-3 36.2 µM | A549 26.3 µM | UACC-62 15.4 µM | HL-60 8.3 µM | IGROV-1 18.6 µM | NCI-H23 21 µM | DMS-273 14.7 µM | SNB-78 20.6 µM | OVCAR-3 18.2 µM | HOP-92 11.8 µM | SK-MEL-2 18.5 µM | NCI-H226 27.3 µM | UO-31 39.8 µM | KM12 14.8 µM | SNB-75 25.2 µM | SN12C 22.8 µM | SF-268 30.7 µM | U-251 23.2 µM | DLD-1 17.9 µM | SF-539 21.5 µM | SR 16 µM | SK-MEL-28 18.6 µM | UACC-257 18.2 µM | LOX IMVI 16.5 µM

CCCCNC(=NC#N)NCCCC
62.4 µM: HCT-15
inactive: HOP-18 > 100 µM | MOLT-4 > 100 µM | HCC 2998 > 100 µM | TK-10 > 100 µM | OVCAR-8 > 100 µM | RPMI-8226 > 100 µM | M19-MEL 83.4 µM | SK-MEL-5 > 100 µM | LXFL 529 > 100 µM | HT-29 > 100 µM | SF-295 > 100 µM | COLO 205 38.2 µM | M14 > 100 µM | OVCAR-5 > 100 µM | DMS-114 55.6 µM | Malme-3M > 100 µM | CAKI-1 > 100 µM | NCI-H522 > 100 µM | K562 > 100 µM | HOP-62 > 100 µM | XF498 > 100 µM | NCI-H460 > 100 µM | 786-0 49.5 µM | SW-620 21.3 µM | RXF 631 > 100 µM | EKVX > 100 µM | HCT-116 > 100 µM | ACHN > 100 µM | SK-OV-3 > 100 µM | A549 > 100 µM | RXF 393 34.5 µM | UACC-62 > 100 µM | IGROV-1 > 100 µM | KM-20L2 > 100 µM | NCI-H23 > 100 µM | DMS-273 > 100 µM | SNB-78 > 100 µM | OVCAR-3 > 100 µM | SNB-19 > 100 µM | HOP-92 > 100 µM | SK-MEL-2 > 100 µM | NCI-H226 > 100 µM | OVCAR-4 > 100 µM | UO-31 > 100 µM | KM12 > 100 µM | SNB-75 > 100 µM | SN12C > 100 µM | SF-268 > 100 µM | U-251 99.5 µM | DLD-1 > 100 µM | SF-539 > 100 µM | SR 78.7 µM | SK-MEL-28 > 100 µM | UACC-257 > 100 µM | A498 > 100 µM

CC12CCCC(C#N)(C1)OC2=O (stereo unspecified)
inactive: MOLT-4 > 100 µM | TK-10 > 100 µM | OVCAR-8 > 100 µM | M19-MEL > 100 µM | SK-MEL-5 > 100 µM | LXFL 529 > 100 µM | HT-29 > 100 µM | SF-295 > 100 µM | M14 > 100 µM | OVCAR-5 > 100 µM | Malme-3M > 100 µM | CAKI-1 > 100 µM | NCI-H522 > 100 µM | K562 > 100 µM | HOP-62 > 100 µM | XF498 > 100 µM | NCI-H460 > 100 µM | 786-0 > 100 µM | SW-620 > 100 µM | CCRF-CEM > 100 µM | RXF 631 > 100 µM | EKVX > 100 µM | HCT-116 > 100 µM | ACHN > 100 µM | SK-OV-3 > 100 µM | A549 > 100 µM | RXF 393 > 100 µM | UACC-62 > 100 µM | HL-60 > 100 µM | IGROV-1 > 100 µM | KM-20L2 > 100 µM | NCI-H23 > 100 µM | DMS-273 > 100 µM | SNB-78 > 100 µM | OVCAR-3 > 100 µM | SNB-19 > 100 µM | HOP-92 > 100 µM | SK-MEL-2 > 100 µM | NCI-H226 > 100 µM | OVCAR-4 > 100 µM | UO-31 > 100 µM | KM12 > 100 µM | SNB-75 > 100 µM | SN12C > 100 µM | SF-268 > 100 µM | U-251 > 100 µM | DLD-1 > 100 µM | SF-539 > 100 µM | SR > 100 µM | SK-MEL-28 > 100 µM | UACC-257 > 100 µM | A498 > 100 µM
